Assay results as given in patent publication US12558326B2, “Method for treating epilepsy” (Xenon Pharmaceuticals Inc., priority 2018, dated 2026).
Several values for one entry are separate records, joined by “and”; a condition that tells them apart may be missing. Equal values may be shown once.

Experiments:
[1] = test system: CF-1 mice; test: 6 Hz seizure test (44 mA, 3 sec, corneal electrodes) in vivo; parameters: species or system mouse; settings: 20 mg/kg IP; for percentage of animals protected against psychomotor seizures: one hour before assay, 6 Hz 44 mA, n=16 per group
Description: This assay tests the ability of a test compound to block a psychomotor seizure induced by long-duration, low frequency (6 Hz) stimulation, and provides an art-accepted model of therapy-resistant partial seizure (Brown et al., 1953 J. Pharmacol. Exp. Therapeut. 107(3):273-283; White H S, Woodhead J H, Wilcox K S, General principles: discovery and preclinical development of antiepileptic drugs, In: Levy R H, Mattson R H, Meldrum B S, Perucca E, editors. Antiepileptic drugs 5th ed Philadelphia: Lippincott Williams & Wilkins; 2002. pp. 36-48; Hartman et al., 2008 Epilepsia 49(2):334-339).
Methods. Adult male CF1 mice (18-25 g) are pretreated intraperitoneally (i.p.) with the test compound at a dose of 20-100 mg/kg. If toxicity is noted in a pre-test screen for toxic effects when the test compound is administered i.p. at varying dosages, the dose is modified to avoid overt toxic effects. Each treatment group (n=4-16 mice/group) is examined for anticonvulsive effects at one or more of five time points (¼, ½, 1, 2, and 4 hr) after treatment with the test compound. Following pretreatment, each mouse receives a drop of 0.5% tetracaine hydrochloride applied to each eye. The mouse is then challenged with low-frequency (6 Hz) stimulation for 3 sec delivered through corneal electrodes. The low-frequency, long-duration stimuli are initially delivered at 32 mA intensity. Animals are manually restrained and released immediately following the stimulation and observed for the presence or absence of seizure activity. If the test compound is effective in the 32 mA screen, an additional assay is performed in which the stimulation current is increased to 44 mA but otherwise using the same protocol as described above. For dose-response studies, an n of 8 mice is used per dose and a dose-response curve is generated at the time of peak effect (TPE) at the specific stimulation intensity.
Typically, the 6 Hz stimulation results in a seizure characterized by a minimal clonic phase that is followed by stereotyped, automatistic behaviors, including jaw clonus, forelimb clonus, twitching of the vibrissae, and/or Straub-tail. Animals not displaying such behaviors are considered protected. Seizure score can be used as an additional measure of the efficacy of the investigational compound (Racine, R. J. 1972 Electroencephalogr. Clin. Neurophysiol. 32(3):281-294). Data are analyzed by Mann-Whitney U test, with p<0.05 determined to be statistically significant. For data obtained at each time point, results are expressed as the total number of animals protected out of the number of animals tested over time (e.g., 2/4 represents 2 out of 4 mice tested are protected).
In this Example, the in vivo anticonvulsant effects of candidate AEDs were tested in mice using the 6 Hz seizure test. The 6 Hz seizure test was performed essentially as described above in Biological Example 2, with minor modifications as presented here, including data collection at a time point that was one hour after administration of the candidate AEDs.
Compounds: Candidate AED compounds were prepared as described above unless otherwise noted, and were as follows: • Racemic fenfluramine ([rac]-fenfluramine hydrochloride); • (R)-fenfluramine ([R]-(−)-fenfluramine hydrochloride); • Racemic norfenfluramine ([rac]-norfenfluramine) was purchased from Toronto Research Chemicals, North York, Ontario, Canada; • (R)-norfenfluramine ([R]-(−)-norfenfluramine.
Animals: Adult male CF-1 albino mice (25-35 g) purchased from Harlan-Envigo (East Millstone, NJ). The mice were housed four per cage and had access to filtered water and chow ad libitum, throughout the experiment.
Compound Preparation and Administration: All four compounds were solubilized in sterile aqueous saline solution (0.9% NaCl). Compounds were administered to animals (16 mice in each treatment group) via intraperitoneal (IP) injection at 10 ml/kg volume, one hour prior to the assay. Control animals received vehicle (saline) only. […]

[2] = Brain and plasma distribution after the 6 Hz assay (UHPLC-ESI-MS/MS); assay type: in vivo, mouse; settings: 20 mg/kg IP, total concentration, sampled immediately after 6 Hz assay (one hour post dose)
Method: Pharmacological distribution and bioanalysis. Immediately following characterization of seizure behaviors in the 6 Hz assay, animals were humanely sacrificed and brain and plasma samples were collected for analysis of the distribution of the administered compounds to these tissue compartments.
Brain sample homogenization. Pre-weighed whole mouse brains were thawed and 1 mL of deionized water and 1 mL of acetonitrile were added to each sample vial containing brain tissue. The samples were homogenized using a hand-held Omni™ TH homogenizer (Omni International, Kennesaw, GA, USA) until a uniform slurry was obtained. 1 mL aliquots of the slurry were transferred to clean 1.5 mL plastic Eppendorf tubes and the tubes were centrifuged at 13,000 rpm (15,871×g) for 20 minutes. The supernatant was collected and stored in clean labelled plastic Eppendorf vials at −80° C.
Mouse plasma and brain homogenate sample preparation. Mouse brain homogenates and mouse plasma samples, as well as calibration standards and QC samples prepared from control (“blank”) untreated mouse plasma, were extracted by protein precipitation. Briefly, 50 μL of each brain homogenate and mouse plasma sample (as well as each calibration standard, QC sample and blank mouse plasma sample) was mixed with 50 μL of internal standard solution [a 2,500 ng/mL solution of (S)-5-((1-benzylpyrrolidin-3-yl)(methyl)amino)-6-methyl-N-(thiazol-4-yl)pyridine-2-sulfonamide in deionized water/acetonitrile (1:1 v/v)], followed by addition of 50 μL of 6% (v/v) phosphoric acid in water. This was followed by the addition of 200 μL of acetonitrile. The samples were vortexed for 30 seconds and then centrifuged for 20 min at 13,000 rpm (15,871×g). The supernatants were further diluted four-fold with acetonitrile:water (1:1 v/v) and transferred to a 96-well plate prior to analysis. Calibration and QC samples were prepared in blank K2EDTA mouse plasma in the concentration range from 2.3 ng/mL to 4800 ng/mL with QC samples, including low QC (14 ng/mL), mid QC (225 ng/mL), and high QC (3600 ng/mL).
UHPLC-ESI-MS/MS analysis. Samples were then analyzed by ultra-high pressure liquid chromatography/electrospray ionization tandem mass spectroscopy (UHPLC-ESI MS/MS) using a Sciex™ TQ-5500 (AB Sciex™ LP, Concord, ON, Canada) mass spectrometer equipped with a Shimadzu Nexera™ UHPLC pump, column compartment and auto-sampler (Shimadzu Scientific Instruments, Inc., Columbia, MD, USA), using a binary gradient elution starting with 80% water (A)/20% acetonitrile (B), both solvents containing 0.1% formic acid. After 0.6 minutes, mobile phase B was increased linearly to 100% to 1 minute and elution was maintained at 100% mobile phase B until 1.5 minutes, and then allowed to re-equilibrate at the initial ration of 80% mobile phase A and 20% mobile phase B for a total run time of 2.5 minutes at a flow rate of 0.4 mL/min. The column used was ACE Excel™ 2 C18-PFP (2.1 mm i.d.×[…], 2 μm particle size)(Advanced Chromatography Technologies Ltd, Aberdeen, Scotland). The analytes and the internal standard were ionized by electrospray in the positive ion mode and detected by multiple reaction monitoring (MRM) using the transitions listed in Table 1.

[3] = molecular target: 5-HT2B receptor (Homo sapiens, UniProt P41595); settings: Rothman et al. 2002, 2003; cited from earlier work
[4] = test system: norepinephrine (NE) release; settings: Rothman et al. 2002, 2003; cited from earlier work
[5] = molecular target: T1, 5-HT2C receptor (Homo sapiens, UniProt P28335); settings: Rothman et al. 2002, 2003; cited from earlier work
T1 sequence (P28335 33-458): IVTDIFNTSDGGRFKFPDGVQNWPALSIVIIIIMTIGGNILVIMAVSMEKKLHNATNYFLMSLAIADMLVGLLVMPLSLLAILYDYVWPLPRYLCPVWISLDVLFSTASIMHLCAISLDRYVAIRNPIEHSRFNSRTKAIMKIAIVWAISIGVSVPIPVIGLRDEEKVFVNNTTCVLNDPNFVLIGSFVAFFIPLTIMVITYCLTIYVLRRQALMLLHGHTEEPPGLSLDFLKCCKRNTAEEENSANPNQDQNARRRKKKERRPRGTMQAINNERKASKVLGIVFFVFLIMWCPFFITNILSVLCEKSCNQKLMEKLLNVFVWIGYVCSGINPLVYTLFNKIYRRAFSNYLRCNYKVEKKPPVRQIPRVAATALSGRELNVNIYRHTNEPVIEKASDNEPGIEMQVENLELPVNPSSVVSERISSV

[6] = molecular target: 5-HT2A receptor (Homo sapiens, UniProt P28223); settings: Rothman et al. 2002, 2003; cited from earlier work
[7] = test system: DBA/2 mice; test: Audiogenic seizure test in DBA/2 mice; assay type: in vivo, mouse; settings: 180 mg/kg IP, 30 min prior
Method: DBA/2 is a widely used inbred strain of mouse susceptible to audiogenic seizures due to the asp2 mutation. […] The objective of this study was to evaluate the anticonvulsant activity of (R/S)-fenfluramine and to compare it to (R)-fenfluramine in the DBA/2 mouse.
The method follows that described by Dilrmuiller et al., Neuroreport 4(6):683-686. Mice (DBA/2, 3-4 weeks old) were individually transferred (at 3-5 minute intervals) from the preparation room into an adjacent experimental room and placed in a Plexiglas™ jar (Diameter=40 cm; Height=35 cm) mounted with an electric bell (110-120 dB). Upon activating the bell, the occurrences and latencies to wild running fits, clonic and tonic seizures were measured. The number of deaths was also recorded. An audiogenic response score was assigned to each mouse as 0 (no seizure), 1 (wild running), 2 (clonic convulsion), 3 (tonic extension), or 4 (death). The bell was activated until a tonic seizure occurred or for a maximum of 60 seconds. Ten (10) mice were studied per group. The test was performed blind. All test compounds were dissolved in 0.9% saline (vehicle) and were administered by intraperitoneal (IP) injection at a dose volume of 10 mL/kg. Vehicle alone, (R/S)-fenfluramine (15 or 30 mg/kg) or (R)-fenfluramine (30 mg/kg) were administered 60 minutes prior to seizure induction. The positive reference compound (valproate; 180 mg/kg) was administered 30 minutes prior to seizure induction.

[8] = test system: MES test; settings: in vivo; cited from earlier work
[9] = test system: 6 Hz model; settings: 30 min after i.p. injection; cited from earlier work

Sequence of 5-HT2A receptor (P28223 whole entry): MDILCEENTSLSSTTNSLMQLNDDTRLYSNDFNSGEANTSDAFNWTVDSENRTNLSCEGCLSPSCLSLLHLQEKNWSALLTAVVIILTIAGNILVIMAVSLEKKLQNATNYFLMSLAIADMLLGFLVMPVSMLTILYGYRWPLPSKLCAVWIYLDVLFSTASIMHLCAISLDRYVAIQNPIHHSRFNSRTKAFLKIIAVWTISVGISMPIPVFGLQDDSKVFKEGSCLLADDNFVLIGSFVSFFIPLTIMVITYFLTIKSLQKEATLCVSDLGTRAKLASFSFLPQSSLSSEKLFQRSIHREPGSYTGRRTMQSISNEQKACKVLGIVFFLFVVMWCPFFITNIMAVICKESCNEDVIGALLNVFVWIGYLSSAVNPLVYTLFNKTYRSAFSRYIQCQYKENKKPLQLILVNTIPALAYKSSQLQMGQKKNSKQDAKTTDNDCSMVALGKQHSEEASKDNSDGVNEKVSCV
Sequence of 5-HT2B receptor (P41595 whole entry): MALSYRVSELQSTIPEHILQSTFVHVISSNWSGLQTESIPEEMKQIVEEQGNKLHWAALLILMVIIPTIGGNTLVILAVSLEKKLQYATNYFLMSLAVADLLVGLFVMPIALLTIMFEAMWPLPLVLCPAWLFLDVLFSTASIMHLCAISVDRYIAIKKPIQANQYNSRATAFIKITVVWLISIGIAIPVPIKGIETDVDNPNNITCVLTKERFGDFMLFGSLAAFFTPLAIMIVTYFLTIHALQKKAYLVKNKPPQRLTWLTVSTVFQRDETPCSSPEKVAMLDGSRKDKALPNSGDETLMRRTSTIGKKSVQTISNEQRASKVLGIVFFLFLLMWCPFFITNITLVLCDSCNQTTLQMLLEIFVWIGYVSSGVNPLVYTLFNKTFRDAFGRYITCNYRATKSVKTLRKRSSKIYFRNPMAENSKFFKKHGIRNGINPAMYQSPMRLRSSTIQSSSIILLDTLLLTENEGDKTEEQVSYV

SMILES: CC(N)Cc1cccc(C(F)(F)F)c1 (racemic) [(rac)-norfenfluramine, (R/S)-1-(3-(trifluoromethyl)phenyl)propan-2-amine]
- percentage of animals protected against psychomotor seizures [1]: 50%
- protective activity against seizures in the 6 Hz psychomotor seizure assay ([1]; summary statement): exhibited protective activity against seizures
- Brain concentration [2]: 151.2 μM and 30718 ng/g
- Plasma concentration [2]: 12.97 μM and 2636 ng/g

SMILES: C[C@@H](N)Cc1cccc(C(F)(F)F)c1 [(R)-norfenfluramine, (R)-1-(3-(trifluoromethyl)phenyl)propan-2-amine]
- percentage of animals protected against psychomotor seizures [1]: 50%
- Brain concentration [2]: 179.6 μM and 36501 ng/g
- Plasma concentration [2]: 17.73 μM and 3604 ng/g

SMILES: C[C@H](N)Cc1cccc(C(F)(F)F)c1 [(S)-norfenfluramine, (S)-1-((3-trifluoromethyl)phenyl)propan-2-amine]
- 5-HT2B agonist activity [3]: potent
- NE release-promoting activity [4]: potent
- 5-HT2C agonist activity [5]: potent
- 5-HT2A agonist activity [6]: potent

SMILES: CCCC(CCC)C(=O)O [Valproate]
- Clonic Convulsion Incidence ([7]; n=10): 0%
- Tonic Extension Incidence ([7]; n=10): 0%
- Wild Running Incidence ([7]; n=10): 40%
- Clonic Convulsion Latency ([7]; mean ± SEM, maximum 60 s): 60.0 ± 0.0 s
- Tonic Extension Latency ([7]; mean ± SEM, maximum 60 s): 60.0 ± 0.0 s
- Wild Running Latency ([7]; mean ± SEM, maximum 60 s): 38.1 ± 9.0 s
- Audiogenic Response Score ([7]; score 0-4, mean ± SEM, n=10): 0.4 ± 0.16

SMILES: CC[C@@H](C(N)=O)N1CCCC1=O [levetiracetam]
- efficacy in the MES test [8]: ineffective
- ED50 [9]: 19 mg/kg
